Data as given in article PMC6753678, “Fueling Open Innovation for Malaria Transmission-Blocking Drugs: Hundreds of Molecules Targeting Early Parasite Mosquito Stages” (Frontiers in Microbiology, 2019).
Read-outs that look alike come from different tables or passages of the source.

Legend:
[1] = test system: 3D7-strain P. falciparum asexual parasites; assay: P. falciparum asexual growth inhibition assay (Pf GIA); assay type: cell-based, Plasmodium falciparum; settings: dose response confirmation; read-out: Pf asexual growth inhibition assays IC50
How it was run: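 Parasites at 0.25% parasitemia, 2% hematocrit in Albumax-supplemented RPMI were exposed to compounds in dose response for 72 h at 37°C under 5% CO2/5% O2. Viability was read as LDH activity (NBT/diaphorase, A650 after freeze-thaw). Percent inhibition was calculated against chloroquine and DMSO controls, mean of three biological replicates.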

HepG2 cells [2] = settings: ref Miguel-Blanco et al 2017, cited from earlier work
[3] = test system: P. falciparum female gametocytes; assay: P. falciparum female gametogenesis assay (Pf FGAA); settings: 1: YES, 0: NO
HepG2 cells [4] = assay: HepG2 cytotoxicity assay; settings: for Unified cytotox: HepG2 values of the three screens unified; for IC50: read-out: HepG2 cytotoxicity assay IC50, dose response confirmation
How it was run: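 HepG2 cells, 2,500 per well in MEM with 10% FBS and 1% NEAA, exposed to compounds for 48 h at 37°C, 5% CO2. Viability read by fluorescence; percent inhibition relative to 50 μM doxorubicin and DMSO controls.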

[5] = test system: P. falciparum female gametocytes; design: method as in Miguel-Blanco et al 2017; settings: ref Miguel-Blanco et al 2017; read-out: Pf FGAA IC50; cited from earlier work
[6] = test system: P. berghei ookinete development; settings: for Is compound selective in assay? Pb ODA active?: 1: YES, 0: NO; for % inhibition, Replicate A / % inhibition, Replicate B: primary screen at 1 μM
[7] = read-out: Pb ODA IC50, this manuscript
[8] = read-out: Pb Ookinete development assay IC50, dose response confirmation

SMILES: Cc1ccnc(NC(c2cccc(Cl)c2Cl)c2ccc3cccnc3c2O)c1 (stereo not shown) [TCMDC-123997]
- IC50 [1]: 1.99 µM
- HepG2 cytoxicity (Pf FGAA screen) (HepG2 cells [2]): 45.69 µM
- Is compound selective in assay? Pf FGAA active? [3]: 1 (1: YES)
- HepG2 cytoxicity (Pb ODA, this manuscript) (HepG2 cells [4]): 2.88 µM
- Unified cytotox (HepG2 cells [4]): 24.29 µM
- IC50 (HepG2 cells [4]): 2.88 µM
- IC50 [5]: 1.91 µM
- Is compound selective in assay? Pb ODA active? [6]: 0 (0: NO)
- % inhibition, Replicate A [6]: 48.46%
- % inhibition, Replicate B [6]: 53.18%
- IC50 [6, 7]: 3.5 µM
- IC50 [6, 8]: 3.5 µM

SMILES: Cc1ccc(-n2c(Sc3ncnc4sccc34)nnc2N2CCCC2)cc1 [TCMDC-125247]
- IC50 [1]: 0.275 µM
- HepG2 cytoxicity (Pf FGAA screen) (HepG2 cells [2]): 89.13 µM
- Is compound selective in assay? Pf FGAA active? [3]: 1 (1: YES)
- HepG2 cytoxicity (Pb ODA, this manuscript) (HepG2 cells [4]): 74.13 µM
- Unified cytotox (HepG2 cells [4]): 81.63 µM
- IC50 (HepG2 cells [4]): 74.1 µM
- IC50 [5]: 0.49 µM
- Is compound selective in assay? Pb ODA active? [6]: 1 (1: YES)
- % inhibition, Replicate A [6]: 123.83%
- % inhibition, Replicate B [6]: 128.92%
- IC50 [6, 7]: 0.22 µM
- IC50 [6, 8]: 0.222 µM

SMILES: O=C(Nc1nc(-c2ccccn2)cs1)c1ccc(S(=O)(=O)N2CCc3ccccc32)cc1 [TCMDC-125432]
- IC50 [1]: 3.85 µM
- HepG2 cytoxicity (Pf FGAA screen) (HepG2 cells [2]): 29.22 µM
- Is compound selective in assay? Pf FGAA active? [3]: 1 (1: YES)
- HepG2 cytoxicity (Pb ODA, this manuscript) (HepG2 cells [4]): 4.22 µM
- Unified cytotox (HepG2 cells [4]): 16.72 µM
- IC50 (HepG2 cells [4]): 4.22 µM
- IC50 [5]: 1.07 µM
- Is compound selective in assay? Pb ODA active? [6]: 0 (0: NO)
- % inhibition, Replicate A [6]: 17.85%
- % inhibition, Replicate B [6]: 54.79%
- IC50 [6, 7]: 2.4 µM
- IC50 [6, 8]: 2.4 µM

SMILES: Oc1c(C(Nc2nc3ccccc3s2)c2ccccc2)ccc2cccnc12 (stereo not shown) [TCMDC-125565]
- IC50 [1]: 2.39 µM
- Is compound selective in assay? Pf FGAA active? [3]: 0 (0: NO)
- HepG2 cytoxicity (Pb ODA, this manuscript) (HepG2 cells [4]): 2.34 µM
- Unified cytotox (HepG2 cells [4]): 2.34 µM
- IC50 (HepG2 cells [4]): 2.34 µM
- IC50 [5]: 3.03 µM
- Is compound selective in assay? Pb ODA active? [6]: 0 (0: NO)
- % inhibition, Replicate A [6]: 27.85%
- % inhibition, Replicate B [6]: 50.32%
- IC50 [6, 7]: 4 µM
- IC50 [6, 8]: 4 µM

SMILES: CCCC(N)C(=O)NC1CCN(c2c(F)c(N)c3c(=O)c(C(=O)O)cn4c3c2Oc2ccccc2-4)C1.Cl (stereo not shown) [TCMDC-125701]
- IC50 [1]: 0.056 µM
- HepG2 cytoxicity (Pf FGAA screen) (HepG2 cells [2]): 1.61 µM
- Is compound selective in assay? Pf FGAA active? [3]: 0 (0: NO)
- HepG2 cytoxicity (Pb ODA, this manuscript) (HepG2 cells [4]): 3.63 µM
- Unified cytotox (HepG2 cells [4]): 2.62 µM
- IC50 (HepG2 cells [4]): 3.63 µM
- IC50 [5]: 1.14 µM
- Is compound selective in assay? Pb ODA active? [6]: 0 (0: NO)
- % inhibition, Replicate A [6]: 70.26%
- % inhibition, Replicate B [6]: 78.60%
- IC50 [6, 8]: 0.9 µM

SMILES: COc1ccc2nc3cc(Cl)ccc3c(N)c2c1.Cl [TCMDC-125835]
- IC50 [1]: 0.029 µM
- HepG2 cytoxicity (Pf FGAA screen) (HepG2 cells [2]): 1.57 µM
- Is compound selective in assay? Pf FGAA active? [3]: 0 (0: NO)
- HepG2 cytoxicity (Pb ODA, this manuscript) (HepG2 cells [4]): 6.17 µM
- Unified cytotox (HepG2 cells [4]): 3.87 µM
- IC50 (HepG2 cells [4]): 6.17 µM
- IC50 [5]: 0.67 µM
- Is compound selective in assay? Pb ODA active? [6]: 0 (0: NO)
- % inhibition, Replicate A [6]: 74.62%
- % inhibition, Replicate B [6]: 77.49%
- IC50 [6, 7]: 6.32 µM
- IC50 [6, 8]: 6.32 µM

SMILES: Cc1cc(Nc2ncc(C#N)c(Nc3ccccc3C(N)=O)n2)ccc1N1CCN(C)CC1.Cl [TCMDC-134115]
- IC50 [1]: 0.007 µM
- HepG2 cytoxicity (Pf FGAA screen) (HepG2 cells [2]): 0.40 µM
- Is compound selective in assay? Pf FGAA active? [3]: 0 (0: NO)
- HepG2 cytoxicity (Pb ODA, this manuscript) (HepG2 cells [4]): 3.98 µM
- Unified cytotox (HepG2 cells [4]): 2.19 µM
- IC50 (HepG2 cells [4]): 3.98 µM
- IC50 [5]: 1.67 µM
- Is compound selective in assay? Pb ODA active? [6]: 1 (1: YES)
- % inhibition, Replicate A [6]: 100.09%
- % inhibition, Replicate B [6]: 101.70%
- IC50 [6, 7]: 0.0214 µM
- IC50 [6, 8]: 0.021 µM

SMILES: Cc1cccc(Nc2nc(N[C@@H]3CCCNC3)nc3cc[nH]c(=O)c23)c1.O=C(O)C(F)(F)F [TCMDC-134835]
- IC50 [1]: 0.255 µM
- HepG2 cytoxicity (Pf FGAA screen) (HepG2 cells [2]): 3.25 µM
- Is compound selective in assay? Pf FGAA active? [3]: 0 (0: NO)
- HepG2 cytoxicity (Pb ODA, this manuscript) (HepG2 cells [4]): 4.57 µM
- Unified cytotox (HepG2 cells [4]): 3.91 µM
- IC50 (HepG2 cells [4]): 4.57 µM
- IC50 [5]: 1.85 µM
- Is compound selective in assay? Pb ODA active? [6]: 0 (0: NO)
- % inhibition, Replicate A [6]: 88.28%
- % inhibition, Replicate B [6]: 77.31%
- IC50 [6, 7]: 0.89 µM
- IC50 [6, 8]: 0.889 µM

SMILES: Nc1nc(N)c2c(ccc3c2ccn3Cc2cccc(F)c2)n1 [TCMDC-137810]
- IC50 [1]: < 0.0002 µM
- HepG2 cytoxicity (Pf FGAA screen) (HepG2 cells [2]): 0.06 µM
- Is compound selective in assay? Pf FGAA active? [3]: 0 (0: NO)
- HepG2 cytoxicity (Pb ODA, this manuscript) (HepG2 cells [4]): 0.17 µM
- Unified cytotox (HepG2 cells [4]): 0.11 µM
- IC50 (HepG2 cells [4]): 0.17 µM
- IC50 [5]: 1.42 µM
- Is compound selective in assay? Pb ODA active? [6]: 0 (0: NO)
- % inhibition, Replicate A [6]: 49.99%
- % inhibition, Replicate B [6]: 58.69%
- IC50 [6, 7]: 0.36 µM
- IC50 [6, 8]: 0.359 µM

SMILES: N#Cc1ccc(Cn2ccc3c4c(N)nc(N)nc4ccc32)cc1 [TCMDC-137820]
- IC50 [1]: 0.022 µM
- HepG2 cytoxicity (Pf FGAA screen) (HepG2 cells [2]): <0.0017 µM
- Is compound selective in assay? Pf FGAA active? [3]: 0 (0: NO)
- HepG2 cytoxicity (Pb ODA, this manuscript) (HepG2 cells [4]): 0.0017 µM
- Unified cytotox (HepG2 cells [4]): 0.0017 µM
- IC50 (HepG2 cells [4]): 0.0017 µM
- IC50 [5]: 1.06 µM
- Is compound selective in assay? Pb ODA active? [6]: 0 (0: NO)
- % inhibition, Replicate A [6]: 57.43%
- % inhibition, Replicate B [6]: 49.47%
- IC50 [6, 7]: 1.54 µM
- IC50 [6, 8]: 1.54 µM

SMILES: Cc1ccc(S(=O)(=O)N(CCCNCc2cccc(O)c2)c2ccccc2)cc1 [TCMDC-138022]
- IC50 [1]: 0.124 µM
- HepG2 cytoxicity (Pf FGAA screen) (HepG2 cells [2]): 44.67 µM
- Is compound selective in assay? Pf FGAA active? [3]: 1 (1: YES)
- HepG2 cytoxicity (Pb ODA, this manuscript) (HepG2 cells [4]): 34.67 µM
- Unified cytotox (HepG2 cells [4]): 39.67 µM
- IC50 (HepG2 cells [4]): 34.7 µM
- IC50 [5]: 1.14 µM
- Is compound selective in assay? Pb ODA active? [6]: 1 (1: YES)
- % inhibition, Replicate A [6]: 53.17%
- % inhibition, Replicate B [6]: 87.34%
- IC50 [6, 7]: 1.48 µM
- IC50 [6, 8]: 1.48 µM

SMILES: CC(C)(C)CNCC(C)(C)c1nc(-c2ccc(Cl)c(O)c2)c(-c2ccncc2)[nH]1.Cl [TCMDC-140549]
- IC50 [1]: 0.817 µM
- HepG2 cytoxicity (Pf FGAA screen) (HepG2 cells [2]): 11.63 µM
- Is compound selective in assay? Pf FGAA active? [3]: 1 (1: YES)
- HepG2 cytoxicity (Pb ODA, this manuscript) (HepG2 cells [4]): 12.02 µM
- Unified cytotox (HepG2 cells [4]): 11.83 µM
- IC50 (HepG2 cells [4]): 12 µM
- IC50 [5]: 1.01 µM
- Is compound selective in assay? Pb ODA active? [6]: 0 (0: NO)
- % inhibition, Replicate A [6]: 58.06%
- % inhibition, Replicate B [6]: 49.80%
- IC50 [6, 7]: 1.35 µM
- IC50 [6, 8]: 1.35 µM

SMILES: CC(C)(CN)c1nc(-c2ccc(Br)c(O)c2)c(-c2ccncc2)[nH]1.Cl [TCMDC-140680]
- IC50 [1]: 1.55 µM
- HepG2 cytoxicity (Pf FGAA screen) (HepG2 cells [2]): 45.82 µM
- Is compound selective in assay? Pf FGAA active? [3]: 1 (1: YES)
- HepG2 cytoxicity (Pb ODA, this manuscript) (HepG2 cells [4]): 47.32 µM
- Unified cytotox (HepG2 cells [4]): 46.57 µM
- IC50 (HepG2 cells [4]): 47.3 µM
- IC50 [5]: 0.84 µM
- Is compound selective in assay? Pb ODA active? [6]: 1 (1: YES)
- % inhibition, Replicate A [6]: 97.33%
- % inhibition, Replicate B [6]: 90.28%
- IC50 [6, 7]: 1.93 µM
- IC50 [6, 8]: 1.93 µM

SMILES: O=c1c(NCCCN(Cc2ccc(F)cc2)c2ccccn2)c(NCc2cccnc2)c1=O [TCMDC-142311]
- HepG2 cytoxicity (HepG2 cells [2]; HepG2 value reported with the Pf FGAA screen): >100 µM
- Is compound selective in assay? Pf FGAA active? ([3]; >10-fold selectivity over cytotox): 1 (1: YES)
- IC50 [5]: 0.36 µM
